Experimental data from ChEMBL document CHEMBL1201862, “PubChem BioAssay data set” (2004).
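Briefly, cells in 96-well plates were exposed to five compound concentrations for 48 h, and endpoints were estimated by linear interpolation. GI50 = concentration required for 50% inhibition of growth.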 The source made the active and inactive calls. Rule as the data show it: active = GI50 up to about 1.1 µM and inactive = higher.

Assays:
Test in all cases: inhibition of tumour cell growth, NCI panel, 48 h
IGROV-1 = test system: IGROV-1
T47D = test system: T47D
TK-10 = test system: TK-10
HCT-116 = test system: HCT-116
OVCAR-8 = test system: OVCAR-8
NCI/ADR-RES = test system: NCI/ADR-RES
M14 = test system: M14
NCI-H460 = test system: NCI-H460
RXF 393 = test system: RXF 393
NCI-H522 = test system: NCI-H522
BT-549 = test system: BT-549
SF-539 = test system: SF-539
RPMI-8226 = test system: RPMI-8226
DU-145 = test system: DU-145
CAKI-1 = test system: CAKI-1
PC-3 = test system: PC-3
COLO 205 = test system: COLO 205
SW-620 = test system: SW-620
SNB-19 = test system: SNB-19
SK-MEL-2 = test system: SK-MEL-2

Row | SMILES | GI50 (IGROV-1) | GI50 (T47D) | GI50 (TK-10) | GI50 (HCT-116) | GI50 (OVCAR-8) | GI50 (NCI/ADR-RES) | GI50 (M14) | GI50 (NCI-H460) | GI50 (RXF 393) | GI50 (NCI-H522) | GI50 (BT-549) | GI50 (SF-539) | GI50 (RPMI-8226) | GI50 (DU-145) | GI50 (CAKI-1) | GI50 (PC-3) | GI50 (COLO 205) | GI50 (SW-620) | GI50 (SNB-19) | GI50 (SK-MEL-2)
1 | N#Cc1nc(/C=C/c2nc(C#N)c(N)o2)oc1N | > 10 µM (inactive) | > 10 µM (inactive) | > 10 µM (inactive) | > 10 µM (inactive) | > 10 µM (inactive) | > 10 µM (inactive) | > 10 µM (inactive) | > 10 µM (inactive) | > 10 µM (inactive) | > 10 µM (inactive) | > 10 µM (inactive) | > 10 µM (inactive) | > 10 µM (inactive) | > 10 µM (inactive) | > 10 µM (inactive) | > 10 µM (inactive) | > 10 µM (inactive) | > 10 µM (inactive) | > 10 µM (inactive) | 
2 | O=[N+]([O-])c1ccc(NN/N=N/c2ccc(-c3nc4ccccc4[nH]3)cc2)c([N+](=O)[O-])c1 | 7.33 µM (inactive) | 30.1 µM (inactive) | > 100 µM (inactive) | 26.7 µM (inactive) | 22.5 µM (inactive) | 45.7 µM (inactive) | 23.1 µM (inactive) | 9.44 µM (inactive) | 47.3 µM (inactive) | 17.9 µM (inactive) | 48.3 µM (inactive) | 40.9 µM (inactive) |  | 66.1 µM (inactive) | 23.2 µM (inactive) | 27.8 µM (inactive) | 27.7 µM (inactive) | 68.5 µM (inactive) | > 100 µM (inactive) | 29 µM (inactive)
3 | CC1OC(OC2C(OC(=O)[C@@H]3CC(C)(C)C[C@@H]4C5=CC[C@@H]6[C@@]7(C)C[C@H](O)[C@H](OC8OC(CO)C(O)C(O)C8O)[C@@](C)(CO)C7[C@H](O)C[C@@]6(C)[C@]5(C)C[C@@H](O)[C@H]43)OCC(O)C2O)C(O)C(O)C1O (some centres not stated) | > 15 µM (inactive) | > 15 µM (inactive) | > 15 µM (inactive) | 7.57 µM (inactive) | > 15 µM (inactive) | > 15 µM (inactive) | > 15 µM (inactive) | > 15 µM (inactive) | 7.45 µM (inactive) | 6.12 µM (inactive) | > 15 µM (inactive) | > 15 µM (inactive) |  | > 15 µM (inactive) | > 15 µM (inactive) | > 15 µM (inactive) | 6.28 µM (inactive) | > 15 µM (inactive) | > 15 µM (inactive) | > 15 µM (inactive)
4 | Cc1cc(C)nc(NS(=O)(=O)c2ccc(NC(=O)c3cc([N+](=O)[O-])cc([N+](=O)[O-])c3)cc2)n1 | > 100 µM (inactive) | 49.4 µM (inactive) | > 100 µM (inactive) | > 100 µM (inactive) | > 100 µM (inactive) | > 100 µM (inactive) | 45.8 µM (inactive) | 86.7 µM (inactive) | > 100 µM (inactive) |  | > 100 µM (inactive) | 37 µM (inactive) | 57.5 µM (inactive) | > 100 µM (inactive) | > 100 µM (inactive) | 58.7 µM (inactive) | 18.3 µM (inactive) | > 100 µM (inactive) | > 100 µM (inactive) | > 100 µM (inactive)
5 | COc1ccc(C[n+]2cccc(O)c2)cc1 | > 100 µM (inactive) | > 100 µM (inactive) | > 100 µM (inactive) | > 100 µM (inactive) | > 100 µM (inactive) | > 100 µM (inactive) | > 100 µM (inactive) | > 100 µM (inactive) | > 100 µM (inactive) |  | > 100 µM (inactive) | > 100 µM (inactive) |  | > 100 µM (inactive) |  | > 100 µM (inactive) |  | > 100 µM (inactive) | > 100 µM (inactive) | > 100 µM (inactive)
6 | Cl/C(=N\c1cccc2ccccc12)N(c1ccccc1)c1ccccc1 | > 100 µM (inactive) | 61.4 µM (inactive) | 72.3 µM (inactive) | 73.5 µM (inactive) |  | > 100 µM (inactive) | 43 µM (inactive) | 28.4 µM (inactive) | > 100 µM (inactive) | 41.2 µM (inactive) | > 100 µM (inactive) |  | 27.1 µM (inactive) | > 100 µM (inactive) | > 100 µM (inactive) | 44.6 µM (inactive) |  | 92.7 µM (inactive) | > 100 µM (inactive) | > 100 µM (inactive)
7 | O=C1c2ccc3ccccc3c2CCC1N1CCCCC1 (configuration not stated) | 15.2 µM (inactive) | 21.2 µM (inactive) | 16.1 µM (inactive) | 17.8 µM (inactive) | 20.7 µM (inactive) | 20.7 µM (inactive) |  | 22 µM (inactive) | 20.6 µM (inactive) | 16.8 µM (inactive) | 23.3 µM (inactive) | 14.6 µM (inactive) |  | 16.7 µM (inactive) | 16 µM (inactive) | 17.4 µM (inactive) | 19.5 µM (inactive) | 17.6 µM (inactive) | 19.7 µM (inactive) | 19.6 µM (inactive)
8 | C=CCc1ccccc1C1CC2(C(=O)OC)OC1C(C(=O)OC)=C2C(=O)OC (configuration not stated) | > 10 µM (inactive) | > 10 µM (inactive) | > 10 µM (inactive) | > 10 µM (inactive) | > 10 µM (inactive) | > 10 µM (inactive) | > 10 µM (inactive) | > 10 µM (inactive) | > 10 µM (inactive) |  | > 10 µM (inactive) | > 10 µM (inactive) | > 10 µM (inactive) | > 10 µM (inactive) | > 10 µM (inactive) | > 10 µM (inactive) | > 10 µM (inactive) | > 10 µM (inactive) | > 10 µM (inactive) | > 10 µM (inactive)
9 | CNC(=O)C(C)C1C(=O)/C(=C(O)/C=C\C(C)=C\C(C)C2OC3(C)OC(C=CC34CO4)C2C)C(=O)N1C1CCC(O)C(C)O1 (configuration not stated) | > 100 µM (inactive) | > 100 µM (inactive) | > 100 µM (inactive) | > 100 µM (inactive) | > 100 µM (inactive) | > 100 µM (inactive) | > 100 µM (inactive) | > 100 µM (inactive) | > 100 µM (inactive) |  | > 100 µM (inactive) | > 100 µM (inactive) | > 100 µM (inactive) | > 100 µM (inactive) | > 100 µM (inactive) | > 100 µM (inactive) | > 100 µM (inactive) | > 100 µM (inactive) | > 100 µM (inactive) | > 100 µM (inactive)
10 | COC(=O)C1Cc2c(OC)ccc(OC)c2CC(C(=O)OC)C1=O (configuration not stated) | > 100 µM (inactive) | > 100 µM (inactive) |  | > 100 µM (inactive) | > 100 µM (inactive) | > 100 µM (inactive) | > 100 µM (inactive) | > 100 µM (inactive) | > 100 µM (inactive) | > 100 µM (inactive) | > 100 µM (inactive) | > 100 µM (inactive) | > 100 µM (inactive) | > 100 µM (inactive) | > 100 µM (inactive) | > 100 µM (inactive) | > 100 µM (inactive) | > 100 µM (inactive) | > 100 µM (inactive) | 
11 | C=CC(=O)N1C/C(=C\c2ccc(N(C)C)cc2)C(=O)/C(=C/c2ccc(N(C)C)cc2)C1 | > 100 µM (inactive) | > 100 µM (inactive) | > 100 µM (inactive) | 40.6 µM (inactive) | > 100 µM (inactive) | > 100 µM (inactive) | > 100 µM (inactive) | > 100 µM (inactive) | 43.1 µM (inactive) |  | 73.5 µM (inactive) | 26.2 µM (inactive) |  | > 100 µM (inactive) | > 100 µM (inactive) | 34 µM (inactive) | > 100 µM (inactive) | 40.8 µM (inactive) | > 100 µM (inactive) | > 100 µM (inactive)
12 | CCOC(=O)/C=C/C(Br)=C(Br)/C=C/C(=O)OCC | 14.2 µM (inactive) | 14.8 µM (inactive) | 14.2 µM (inactive) | 2.77 µM (inactive) | 4.79 µM (inactive) | 11.4 µM (inactive) | 13.3 µM (inactive) | 33.9 µM (inactive) | 8.93 µM (inactive) | 2.12 µM (inactive) | 5.62 µM (inactive) |  | 2.59 µM (inactive) | 13.1 µM (inactive) | 3.84 µM (inactive) | 13.5 µM (inactive) | 16.4 µM (inactive) |  | 17.5 µM (inactive) | 20.2 µM (inactive)
13 | CCOC(=O)C1=c2[nH]c3cccc4cccc(c43)n2C(=O)CC1c1ccccc1 (configuration not stated) | > 100 µM (inactive) | > 100 µM (inactive) | > 100 µM (inactive) | > 100 µM (inactive) | > 100 µM (inactive) | > 100 µM (inactive) | > 100 µM (inactive) | > 100 µM (inactive) | > 100 µM (inactive) | > 100 µM (inactive) | > 100 µM (inactive) |  | > 100 µM (inactive) | > 100 µM (inactive) | > 100 µM (inactive) | > 100 µM (inactive) | > 100 µM (inactive) | > 100 µM (inactive) | > 100 µM (inactive) | > 100 µM (inactive)
14 | COc1cc2c3c(c4cc(OC)c(OC)cc4c2cc1OC)[C@H](O)[C@@H]1CCCN1C3 | < 0.0275 µM (active) | 0.0269 µM (active) | 0.0562 µM (active) | < 0.0215 µM (active) | < 0.0308 µM (active) | < 0.0372 µM (active) | < 0.0332 µM (active) | < 0.0226 µM (active) |  | < 0.0378 µM (active) | 0.144 µM (active) | < 0.0365 µM (active) | < 0.0253 µM (active) | < 0.0243 µM (active) | < 0.0324 µM (active) | < 0.0303 µM (active) | < 0.0179 µM (active) | < 0.0269 µM (active) | 0.0276 µM (active) | < 0.0167 µM (active)
